Data on two compounds can be found in patent US20070249559A1, “Hydrating Composition” (priority 2004, published 2007).

Data set [1] in a line: Body mass and body water compartments (bioimpedance) before and after 7-day supplementation. The data set is classed as in vivo, human. The following applies: for Change in extracellular water (ECW) post- vs pre-supplementation / Change in intracellular water (ICW) post- vs pre-supplementation / Change in total body water (TBW) post- vs pre-supplementation: bioimpedance; for Change in extracellular water (ECW) post- vs pre-supplementation / Change in intracellular water (ICW) post- vs pre-supplementation / Change in total body water (TBW) post- vs pre-supplementation / Change in body mass (BM) post- vs pre-supplementation: supplementation week; for Change in body mass (BM) post- vs pre-supplementation: well-trained cyclists, final supplement 5 hours prior. The protocol:
(§1) The experimental design and protocol are complicated and is best understood by reference to FIGS. 1 and 2. The study consisted of two supplementation regimens, each lasting 7 days and encompassing four cycle performance trials consisting of 40 min constant-load exercise at 63% WRmax followed by a 16.1 km (10 mile) time trial. Prior to the first of these experimental trials, familiarisation trials were completed until the variability of two consecutive trials was within 5%. Following this familiarisation period, subjects were matched for body mass (BM) and were randomised in a double blind fashion to either a Cr or a placebo (Pl) group. Subjects performed an exercise trial pre- and post-supplementation in both supplementation weeks. The first test was conducted at least 48 hours after each subject's final familiarisation trial. Each supplementation period started on the day after the first test and finished on the day of the second test.
(§2) Cr supplementation consisted of 22.8 g·d^−1 of Cr.H2O (equivalent to 10 g Cr×2 daily) and 140 g of glucose polymer (70 g×2 daily) made up in 2 L of warm to hot water for 6 days. […] Each supplementation was made freshly prior to consumption in order to prevent any degradation of Cr to creatinine (Crn). The Pl supplement consisted of 170 g·d^−1 of glucose polymer (85 g×2 daily). During the first and third week of the experimental regimen, subjects in both groups received either 1 g glycerol (Gly) per·kg BM or an equivalent amount of Pl (sucrose solution) diluted in each supplement. In both post-supplementation trials (days 8 and 22) subjects consumed the appropriate supplement 5 hours prior to exercise. […] All supplements had similar taste, texture and appearance and were placed in generic water bottles to ensure double blind administration. On each of the experimental test days (i.e. days 1, 8, 15, 22) subjects ingested 500 ml of water 3 hours prior to exercise and a further 500 ml of water 1 hour prior to exercise to ensure subjects were adequately hydrated prior to all exercise trials (American College of Sports Medicine, 2000).
(§3) Procedures. Subjects reported to the laboratory on the day of testing following a 3 hr fast and having refrained from alcohol, caffeine and strenuous exercise the day before. Upon arrival at the laboratory, height and nude BM were measured and body water compartments were estimated using a Bodystat Multiscan 5000 Bioimpedance analyser (Bodystat Ltd, Isle of Man) (Van Loan, 1990). This method allows TBW and ECW to be estimated; from these measurements ICW can also be deduced. The bioimpedance measurements were taken while the subjects lay comfortably in a supine position on a non-conductive surface with their arms and legs slightly abducted. Following the bioimpedance measurement, a flexible rectal thermistor was inserted 10 cm beyond the anal sphincter to measure rectal temperature (Tre), an index of core temperature (Tc) and a heart rate (HR) monitor (Polar Sports Tester, Polar Electro Oy, Kempele, Finland) was attached. The subject's right hand and forearm were immersed in water at 42-44° C. for 15 min in order to allow for arterialisation of the venous blood (Forster at al. 1972). Following this, a 21 G cannula was introduced into a superficial vein on the dorsal surface of the heated hand. The subject was transferred to the climatic chamber (ambient temperature 30±1° C. with a relative humidity of 70±2% and air velocity of approximately 1.8 m·sec^−1) and seated on the cycle ergometer for 5 min. During this period thermistors (C8600 10 channel microprocessor, Comark, Hertfordshire, UK) were attached to the subject's chest, tricep, thigh and calf for the determination of weighted mean skin temperature (Tskin) (Ramanthan, 1964). The subject remained seated on the cycle ergometer for a further 1 min while resting HR, Tre, Tskin were recorded and a blood sample (10 ml) obtained. The venous cannula was kept patent by a 10 ml infusion of isotonic saline between samples. […]

Data set [2] can be described thus: Cycle exercise in the heat: 40 min constant load at 63% WRmax followed by 16.1 km time trial. The data set is classed as in vivo, human. Conditions: for Core temperature (Tc, rectal) during exercise post- vs pre-supplementation / Heart rate (HR) during exercise post- vs pre-supplementation: 30 C, 70% relative humidity; for RPE for breathlessness post- vs pre-supplementation / RPE for perceived leg fatigue post- vs pre-supplementation: Borg category scale; for Change in plasma volume (delta PV) during exercise post- vs pre-supplementation: calculated from Hb and PCV. The protocol: as §1, §2, §3

Data set [3] can be described thus: Side effects of the supplementation protocol. The data set is classed as in vivo, human. The following applies: 18 subjects.
Description: as §2
Side effects. […] 3 subjects from each group correctly identified the subject group and 2 subjects correctly identified the Gly supplementation week, while, all other subjects were unsure of the treatment they received.

The conditions of data set [4]: consumed with a substantial fluid intake; by reducing urinary volume; cited from earlier work.
Where [5] appears, read: bioimpedance estimate after supplementation.

Take `CN(CC(=O)O)C(=N)N` [Cr, methyl guanidine acetic acid]: the “Increase in plasma volume (PV)” value in data set [1] (assuming 7.5% of the increase in TBW is plasma) is on record as “approximately 51 ml”. Besides, in data set [1] (setting [5]), the “Increase in TBW (estimated, on average)” value is 680 mL and the “Part of TBW increase accounted for by increase in ICW” value was 500 mL. Also, in data set [1], the “Change in extracellular water (ECW) post- vs pre-supplementation” value is reported as “increased significantly”, the “Change in intracellular water (ICW) post- vs pre-supplementation” value is “increased significantly”, the “Change in total body water (TBW) post- vs pre-supplementation” value was “increased significantly” and the “Change in body mass (BM) post- vs pre-supplementation” value is reported as “increased significantly”. Besides, in data set [2], the “Core temperature (Tc, rectal) during exercise post- vs pre-supplementation” value was “significantly lower”; the “Heart rate (HR) during exercise post- vs pre-supplementation” value was “significantly lower”; the “RPE for breathlessness post- vs pre-supplementation” value is “Lower”; the “RPE for perceived leg fatigue post- vs pre-supplementation” value is “Significantly lower”. Also, the “Change in plasma volume (delta PV) during exercise post- vs pre-supplementation” value in data set [2] is on record as “lower”. Also, in data set [2] (post- vs pre-supplementation), the “16.1 km time trial performance” value is recorded as “no effect”.
Turning to `OCC(O)CO` [Gly, glycerol], in data set [1] (setting [5]), the “Increase in TBW (estimated, on average)” value is 600 mL and the “Part of TBW increase accounted for by increase in ECW” value was 400 mL. In data set [1], the “Change in extracellular water (ECW) post- vs pre-supplementation” value is on record as “increased significantly”, the “Change in intracellular water (ICW) post- vs pre-supplementation” value is given as “no significant increase”, the “Change in total body water (TBW) post- vs pre-supplementation” value is recorded as “increased significantly” and the “Change in body mass (BM) post- vs pre-supplementation” value is reported as “increased significantly”. For the same compound, in data set [2], the “Core temperature (Tc, rectal) during exercise post- vs pre-supplementation” value is “not significantly different”; the “Heart rate (HR) during exercise post- vs pre-supplementation” value is “significantly lower”; the “RPE for breathlessness post- vs pre-supplementation” value is reported as “no such effect”; the “RPE for perceived leg fatigue post- vs pre-supplementation” value is “no such effect”. Moreover, the “Change in plasma volume (delta PV) during exercise post- vs pre-supplementation” value in data set [2] is reported as “not significantly different”. In data set [3], the Side effects reported entry was “only one report of gastrointestinal distress”. The “Fluid expansion or retention above a fluid bolus alone” value in data set [4] was about 600 mL.
